From ChEMBL document CHEMBL3045982, “Design, synthesis and structure-activity relationship of novel coumarin derivatives” (Pest Manag Sci, 2011) come the findings set out here.

Assay [1] has as its system Pseudoperonospora cubensis. Description: Fungicidal activity against Pseudoperonospora cubensis at 200 mg/L relative to untreated control. The class given is functional.
Assay [2] relates to Pseudoperonospora cubensis. Description: Fungicidal activity against Pseudoperonospora cubensis at 25 mg/L relative to untreated control. The class given is functional.
In assay [3] the test system is Pseudoperonospora cubensis. Description: Fungicidal activity against Pseudoperonospora cubensis at 6.25 mg/L relative to untreated control. The class given is functional.
Assay [4] has as its system Pseudoperonospora cubensis. Description: Fungicidal activity against Pseudoperonospora cubensis at 50 mg/L relative to untreated control. The class given is functional.
Assay [5] concerns Pseudoperonospora cubensis. Description: Fungicidal activity against Pseudoperonospora cubensis at 100 mg/L relative to untreated control. The class given is functional.
Assay [6] concerns Cytospora. The assay is described as follows: Fungicidal activity against Cytospora mandshurica Miura at 500 mg/L of 20% compound under field trials conditions relative to untreated control. The class given is functional.
Assay [7] concerns Cytospora. Description: Fungicidal activity against Cytospora mandshurica Miura at 1000 mg/L of 20% compound under field trials condition relative to untreated control. The class given is functional.
The subject of assay [8] is Cytospora. Description: Fungicidal activity against Cytospora mandshurica Miura under green house condition in presence of 20% compound. The class given is functional, organism-based.
Assay [9] relates to Cytospora. Description: Fungicidal activity against Cytospora mandshurica Miura under green house condition in presence of 96% compound. The class given is functional, organism-based.
Assay [10] deals with Cytospora. Description: Fungicidal activity against Cytospora mandshurica Miura at 1000 mg/L of 25% compound under field trials condition relative to untreated control. The class given is functional.
Assay [11] concerns Cytospora. The assay is described as follows: Fungicidal activity against Cytospora mandshurica Miura under green house condition in presence of 98% compound. The class given is functional, organism-based.

In [1], `CO/C=C(/C(=O)OC)c1ccccc1COc1cccc2c(C)c(C)c(=O)oc12` displayed an Activity of 0%.
On the same count and under the same terms, under `CO/C=C(/C(=O)OC)c1ccccc1COc1ccc2c3c(c(=O)oc2c1C)CCC3` stands 0%.
Turning to `CO/C=C(/C(=O)OC)c1ccccc1COc1ccc2c(-c3ccc(Cl)nc3)cc(=O)oc2c1`, the Activity worked out at 40% in [2]; 0% in assay [3]; 75% in assay [4]; 90% in assay [1]; 80% in [5].
In the case of `CO/C=C(/C(=O)OC)c1ccccc1COc1ccc2c(-c3ccc(C(F)(F)F)cc3)cc(=O)oc2c1`, the values for the Activity in assay [1] and in [5] were 85% and 70%, respectively.
In the case of `CCCc1cc(=O)oc2cc(OCc3ccccc3/C(=C\OC)C(=O)OC)ccc12`, the Activity in [2] is 95%; in assay [3], 55%; in assay [4] it was 100%; in [1] it was 100%; in assay [5], 100%.
Usually EC50 stands for the concentration needed to bring the measured effect to its halfway point. Turning to `CCCCc1c(C)c2ccc(OCc3ccccc3/C(=C\OC)C(=O)OC)cc2oc1=O` [Coumoxystrobin], the Efficacy with Cytospora [6] was found to be 88.5%; in the assay on Cytospora [7] it was 97.3%. Besides, the 50% effective concentration (EC50) with Cytospora [8] amounted to 1.72 mg/L; with Cytospora [9], 1.83 mg/L. Also, the Activity in [2] is reported as 100%; in assay [3], 95%; in assay [4], 100%; in [1], 100%; in [5], 100%.
With `CO/N=C(/C(=O)OC)c1ccccc1COc1ccc2c(C)c(Cl)c(=O)oc2c1`, the Activity came out at 85% in assay [2]; 65% in assay [3]; 90% in [4]; 100% in [1]; 100% in assay [5].
Take `CO/C=C(/C(=O)OC)c1ccccc1COc1cc(=O)oc2ccccc12`: the Activity in assay [2] was found to be 0%; in assay [3], 0%; in assay [4], 30%; in assay [1] it was 85%; in assay [5], 70%.
In the assay with Cytospora [10], `CO/C=C(/C(=O)OC)c1ccccc1Oc1cc(Oc2ccccc2C#N)ncn1` [AZOXYSTROBIN] showed an Efficacy of 73.5%. The EC50 in the assay on Cytospora [11] amounted to 2.78 mg/L. Besides, the Activity stood at 100% in assay [2] and 95% in assay [3].
With `CO/C=C(/C(=O)OC)c1ccccc1COc1ccc2ccc(=O)oc2c1`, the Activity in assay [2] was 50%; in assay [3], 0%; in assay [4], 70%; in assay [1] it was 100%; in assay [5], 100%.
For `CO/N=C(/C(=O)OC)c1ccccc1COc1ccccc1C` [KRESOXIM-METHYL], the Activity in assay [2] came out at 35%; in assay [3], 0%.
In the case of `CO/C=C(/C(=O)OC)c1ccccc1COc1ccc2c(C)cc(=O)oc2c1C(C)=O`, in assay [1], the Activity came out at 60%.
On the same count and under the same terms, for `CO/C=C(/C(=O)OC)c1ccccc1COc1ccc2c(C)cc(=O)oc2c1/C(C)=N/OC` the value was 30%.
For `CCc1cc(=O)oc2cc(OCc3ccccc3/C(=C\OC)C(=O)OC)ccc12`, the Activity in assay [2] is recorded as 100%; in assay [3], 50%; in [4], 100%; in [1], 100%; in assay [5], 100%.
As to `CO/C=C(/C(=O)OC)c1ccccc1COc1ccc2c(-c3ccccc3)cc(=O)oc2c1C`, the Activity was 50% in [2]; 30% in assay [3]; 90% in assay [4]; 95% in assay [1]; 90% in assay [5].
In the case of `CO/C=C(/C(=O)OC)c1ccccc1COc1ccc2c(-c3ccccc3)cc(=O)oc2c1`, the Activity stood at 60% in assay [2]; 50% in assay [3]; 80% in [4]; 100% in assay [1]; 100% in assay [5].
As to `CO/C=C(/C(=O)OC)c1ccccc1COc1cccc(C(F)(F)F)n1` [PICOXYSTROBIN], the Activity was 95% in [2] and 50% in [3].
Consider `CCCCCCc1c(C)c2ccc(OCc3ccccc3/C(=C\OC)C(=O)OC)cc2oc1=O`, for which the Activity amounted to 100% in assay [2]; 80% in [3]; 100% in assay [4]; 100% in [1]; 100% in [5].
`CO/C=C(/C(=O)OC)c1ccccc1COc1cc2oc(=O)cc(C)c2cc1/C(C)=N\OC` displayed an Activity in assay [1] of 80%.
In the case of `CO/C=C(/C(=O)OC)c1ccccc1COc1ccc2c(C(C)C)cc(=O)oc2c1`, the Activity in [2] came out at 95%; in [3] it was 50%; in assay [4] it was 100%; in assay [1], 100%; in [5] it was 100%.
Consider `CO/C=C(/C(=O)OC)c1ccccc1COc1ccc2c3c(c(=O)oc2c1)CCC3`, for which the Activity is 100% in [2] and 40% in assay [3].
As for `CO/C=C(/C(=O)OC)c1ccccc1COc1ccc2c(C)c(Cl)c(=O)oc2c1`, the Activity in [2] is given as 100%; in assay [3], 75%; in [4], 100%; in assay [1] it was 100%; in assay [5] it was 100%.
As for `CCCc1c(C)c2ccc(OCc3ccccc3/C(=C\OC)C(=O)OC)cc2oc1=O`, the Activity stood at 20% in assay [2]; 0% in assay [3]; 30% in assay [4]; 100% in assay [1]; 80% in [5].
For `CO/C=C(/C(=O)OC)c1ccccc1COc1ccc2c(C)cc(=O)oc2c1` the same measures were 97%, 45%, 100%, 100% and 100%.
For `CO/C=C(/C(=O)OC)c1ccccc1COc1ccc2oc(=O)cc(C)c2c1` the same measures were 0%, 0%, 30%, 85% and 60%.
For `CO/C=C(/C(=O)OC)c1ccccc1COc1ccc2c(-c3ccc(Cl)cc3)cc(=O)oc2c1`, the Activity in assay [1] turned out to be 70%.
Take `CO/C=C(/C(=O)OC)c1ccccc1COc1ccc2c(C)c(F)c(=O)oc2c1`: the Activity in assay [2] worked out at 95%; in assay [3], 60%; in assay [4] it was 100%; in assay [1], 100%; in assay [5], 100%.
`CCCCc1c(C)c2ccc(OCc3ccccc3N(OC)C(=O)OC)cc2oc1=O`: the Activity was determined as 75% in assay [2]; 50% in [3]; 90% in assay [4]; 100% in assay [1]; 100% in assay [5].
Consider `CCc1c(C)c2ccc(OCc3ccccc3/C(=C\OC)C(=O)OC)cc2oc1=O`, for which the Activity came out at 20% in assay [2]; 0% in assay [3]; 80% in assay [4]; 100% in assay [1]; 100% in [5].
In the case of `CNC(=O)/C(=N/OC)c1ccccc1COc1ccc2c(C)c(C)c(=O)oc2c1C`, the Activity in assay [2] was determined as 20%; in [3] it was 0%; in [4], 30%; in assay [1], 95%; in assay [5] it was 85%.
In the same order, the values of `CO/C=C(/C(=O)OC)c1ccccc1COc1ccc2c(C)c(C)c(=O)oc2c1` are 100%, 85%, 100%, 100% and 100%.
In the case of `CO/C=C(/C(=O)OC)c1ccccc1COc1ccc2oc(=O)c(C)c(C)c2c1`, the Activity in assay [1] was found to be 70%.
`COC(=O)N(OC)c1ccccc1COc1ccc2c(C)c(C)c(=O)oc2c1`: the Activity in [2] was 85%; in assay [3] it was 65%; in assay [4], 100%; in assay [1], 100%; in assay [5] it was 100%.
As to `CO/C=C(/C(=O)OC)c1ccccc1COc1cc2oc(=O)cc(C)c2cc1C(C)=O`, the Activity in assay [2] worked out at 50%; in [3] it was 0%; in [4], 80%; in assay [1], 90%; in assay [5] it was 85%.
For `CO/C=C(/C(=O)OC)c1ccccc1COc1ccc2c(C(F)(F)F)cc(=O)oc2c1` the same measures were 70%, 50%, 80%, 100% and 95%.
In the same order, the values of `COC(=O)N(OC)c1ccccc1COc1ccc2c(C)c(C)c(=O)oc2c1C` are 50%, 0%, 75%, 90% and 80%.
`CO/C=C(/C(=O)OC)c1ccccc1COc1ccc2c3c(c(=O)oc2c1C)CCCC3` had an Activity in assay [1] of 50%.
As for `CO/N=C(/C(=O)OC)c1ccccc1COc1ccc2c(C)c(C)c(=O)oc2c1C`, the Activity turned out to be 50% in assay [2]; 40% in [3]; 60% in assay [4]; 95% in assay [1]; 85% in [5].
As to `CO/C=C(/C(=O)OC)c1ccccc1COc1ccc2c3c(c(=O)oc2c1)CCCC3`, the Activity in assay [2] is 100%; in [3], 75%.
